Reference: US5328902A, “7-(substituted)-9-[(substituted glycyl)amido]-6-demethyl-6-deoxytetracyclines” (American Cyanamid Co., priority 1992, dated 1994)

Experiments:
E. coli J3272 Tet D = assay: microbe, parasite or virus in culture; format: cell-based; settings: E. coli J3272 Tet D
[1] = system: Ps. acruginosa ATCC 27853; assay: MIC, agar dilution; format: cell-based; settings: Ps. acruginosa ATCC 27853
[2] = system: E. coli MC 4100 TNIOC Tet B; assay: microbe, parasite or virus in culture; format: cell-based; settings: E. coli MC 4100 TNIOC Tet B
S. mariescens FPOR 8733 = assay: MIC, agar dilution; format: cell-based
E. coli J3272 Tet sens. = assay: MIC, agar dilution; format: cell-based
S. aureus IVES 1 983 = assay: MIC, agar dilution; format: cell-based; settings: S. aureus IVES 1 983
[3] = system: S. aureus UBMS 90-1 Tet M; assay: microbe, parasite or virus in culture; format: cell-based; settings: S. aureus UBMS 90-1 Tet M
E. coli UBMS 90-4 Tet M = assay: microbe, parasite or virus in culture; format: cell-based; settings: E. coli UBMS 90-4 Tet M
Enterococcus 12201 = assay: MIC, agar dilution; format: cell-based; settings: Enterococcus 12201
S. aureus UBMS 88-4 = assay: MIC, agar dilution; format: cell-based; settings: S. aureus UBMS 88-4
[4] = system: S. aureus UBMS 88-5 Tet M; assay: microbe, parasite or virus in culture; format: cell-based; settings: S. aureus UBMS 88-5 Tet M
[5] = system: S. aureus UBMS 90-2 Tet M; assay: microbe, parasite or virus in culture; format: cell-based; settings: S. aureus UBMS 90-2 Tet M
S. aureus NEMC 8769 = assay: MIC, agar dilution; format: cell-based; settings: S. aureus NEMC 8769
[6] = system: E. coli UBMS 89-2 Tet sens.; assay: MIC, agar dilution; format: cell-based; settings: E. coli UBMS 89-2 Tet sens.
S. aureus ATCC 29213 = assay: MIC, agar dilution; format: cell-based; settings: S. aureus ATCC 29213
[7] = system: S. aureus UBMS 88-7 Tet K; assay: microbe, parasite or virus in culture; format: cell-based; settings: S. aureus UBMS 88-7 Tet K
E. coli ATCC 25922 = assay: MIC, agar dilution; format: cell-based; settings: E. coli ATCC 25922
E. coli UBMS 88-1 Tet B = assay: microbe, parasite or virus in culture; format: cell-based; settings: E. coli UBMS 88-1 Tet B; 18 hours at 35° C.
E. coli PRP1 Tet A = assay: microbe, parasite or virus in culture; format: cell-based; settings: E. coli PRP1 Tet A
E. coli UBMS 90-5 = assay: MIC, agar dilution; format: cell-based
E. coli UBMS 89-1 Tet M = assay: microbe, parasite or virus in culture; format: cell-based; settings: E. coli UBMS 89-1 Tet M
[8] = system: Wild Type S30 (wild type ribosomes, E. coli strain MRE600, tetracycline sensitive); assay: E. coli in vitro protein translation system, wild type S30; settings: for inhibition of protein synthesis occuring on wild type ribosomes: coupled transcription and translation system
the ribosome = assay: Reversibility of binding: bacterial growth resumes after washing; format: cell-based; settings: bacterial growth resumes when the compound is removed from the cultures by washing
From the text: Therefore, the ability of these compounds to inhibit bacterial growth appears to be a direct consequence of its ability to inhibit protein synthesis at the ribosome level.

[9] = system: S. hemolyticus AVHAH 88-3; assay: MIC, agar dilution; format: cell-based; settings: S. hemolyticus AVHAH 88-3
S. aureus IVES 2943 = assay: MIC, agar dilution; format: cell-based; settings: S. aureus IVES 2943
E. faecalis ATCC 29212 = assay: MIC, agar dilution; format: cell-based; settings: E. faecalis ATCC 29212
E. coli #311 (MP) = assay: MIC, agar dilution; format: cell-based; settings: E. coli #311 (MP)
E. coli J2175 = assay: MIC, agar dilution; format: cell-based; settings: E. coli J2175
E. coli J3272 Tet C = assay: microbe, parasite or virus in culture; format: cell-based; settings: E. coli J3272 Tet C
S. aureus ROSE (MP) = assay: MIC, agar dilution; format: cell-based; settings: S. aureus ROSE (MP)
E. coli BAJ9003 IMP MUT = assay: microbe, parasite or virus in culture; format: cell-based; settings: E. coli BAJ9003 IMP MUT
S. aureus SMITH (MP) = assay: MIC, agar dilution; format: cell-based; settings: S. aureus SMITH (MP)
S. aureus UBMS 90-3 = assay: MIC, agar dilution; format: cell-based; settings: S. aureus UBMS 90-3
[10] = system: tetracycline sensitive and resistant Gram-positive and Gram-negative bacteria; assay: In vitro antibacterial activity, summary in words of Table I; format: cell-based

[4S-(4alpha,12aalpha)]-9-[[[(2,2-Diethoxyethyl)amino]acetyl]amino]-4,7-bis(dimethylamino)-1,4,4a,5,5a,6,11,12a-octahydro-3,10, 12,12a-tetrahydroxy-1,11-dioxo-2-naphthacenecarboxamide dihydrochloride [Compound C]
MIC (E. coli J3272 Tet D): 4 µg/mL
MIC [1]: > 32 µg/mL
MIC [2]: 8 µg/mL
MIC (S. mariescens FPOR 8733): > 32 µg/mL
MIC (E. coli J3272 Tet sens.): 8 µg/mL
MIC (S. aureus IVES 1 983): 16 µg/mL
MIC [3]: 1 µg/mL
MIC (E. coli UBMS 90-4 Tet M): 4 µg/mL
MIC (Enterococcus 12201): 1 µg/mL
MIC (S. aureus UBMS 88-4): 1 µg/mL
MIC [4]: 1 µg/mL
MIC [5]: 1 µg/mL
MIC (S. aureus NEMC 8769): 0.25 µg/mL
MIC [6]: 8 µg/mL
MIC (S. aureus ATCC 29213): 1 µg/mL
MIC [7]: 8 µg/mL
MIC (E. coli ATCC 25922): 8 µg/mL
MIC (E. coli UBMS 88-1 Tet B): 16 µg/mL
MIC (E. coli PRP1 Tet A): > 32 µg/mL
MIC (E. coli UBMS 90-5): 8 µg/mL
MIC (E. coli UBMS 89-1 Tet M): 4 µg/mL
% Inhibition Wild Type S30 ([8]; Conc. 0.06 mg/ml): 88%
% Inhibition Wild Type S30 ([8]; Conc. 1.0 mg/ml): 98%
inhibition of protein synthesis occuring on wild type ribosomes [8]: effectively inhibit protein synthesis
reversibility of binding to the ribosome (the ribosome): bind reversibly
MIC [9]: 2 µg/mL
MIC (S. aureus IVES 2943): 8 µg/mL
MIC (E. faecalis ATCC 29212): 0.5 µg/mL
MIC (E. coli #311 (MP)): 8 µg/mL
MIC (E. coli J2175): 8 µg/mL
MIC (E. coli J3272 Tet C): 16 µg/mL
MIC (S. aureus ROSE (MP)): 16 µg/mL
MIC (E. coli BAJ9003 IMP MUT): 0.5 µg/mL
MIC (S. aureus SMITH (MP)): 0.5 µg/mL
MIC (S. aureus UBMS 90-3): 0.5 µg/mL

[4S-(4alpha,12aalpha)]-4,7-Bis(dimethylamino)-1,4,4a,5,5a,6,11,12a-octahydro-3,10, 12,12a-tetrahydroxy-1,11-dioxo-9-[[(2-propenylamino)acetyl]amino]-2-naphthacenecarboxamide dihydrochloride
MIC (E. coli J3272 Tet D): 0.25 µg/mL
MIC [1]: 16 µg/mL
MIC [2]: 1 µg/mL
MIC (S. mariescens FPOR 8733): 8 µg/mL
MIC (E. coli J3272 Tet sens.): 0.5 µg/mL
MIC (S. aureus IVES 1 983): 8 µg/mL
MIC [3]: 0.5 µg/mL
MIC (E. coli UBMS 90-4 Tet M): 0.5 µg/mL
MIC (Enterococcus 12201): 0.25 µg/mL
MIC (S. aureus UBMS 88-4): 0.25 µg/mL
MIC [4]: 0.25 µg/mL
MIC (S. aureus NEMC 8769): 0.12 µg/mL
MIC [6]: 0.5 µg/mL
MIC (S. aureus ATCC 29213): 0.25 µg/mL
MIC [7]: 8 µg/mL
MIC (E. coli ATCC 25922): 0.5 µg/mL
activity against E. coli tetA, E. coli tetC and E. coli tetD [10]: good activity
in vitro activity against tetracycline resistant strains containing tetM and tetB resistance determinants ([10]; S. aureus UBMS 88-5, 90-1, 90-2, E. coli UBMS 89-1, 90-4, 88-1, TN10C tetB): excellent
activity against recently isolated bacteria from clinical sources compared with minocycline ([10]; clinical isolates): superior to that of minocycline
activity against susceptible strains compared with minocycline ([10]; susceptible strains): equallyas effective as minocycline
MIC (E. coli UBMS 88-1 Tet B): 1 µg/mL
MIC (E. coli PRP1 Tet A): 8 µg/mL
MIC (E. coli UBMS 90-5): 0.5 µg/mL
MIC (E. coli UBMS 89-1 Tet M): 0.5 µg/mL
% Inhibition Wild Type S30 ([8]; Conc. 0.06 mg/ml): 93%
% Inhibition Wild Type S30 ([8]; Conc. 1.0 mg/ml): 99%
inhibition of protein synthesis occuring on wild type ribosomes [8]: effectively inhibit protein synthesis
reversibility of binding to the ribosome (the ribosome): bind reversibly
MIC [9]: 0.5 µg/mL
MIC (S. aureus IVES 2943): 8 µg/mL
MIC (E. coli #311 (MP)): 0.5 µg/mL
MIC (E. coli J2175): 0.5 µg/mL
MIC (E. coli J3272 Tet C): 1 µg/mL
MIC (S. aureus ROSE (MP)): 8 µg/mL
MIC (E. coli BAJ9003 IMP MUT): 0.12 µg/mL
MIC (S. aureus UBMS 90-3): 0.25 µg/mL

[4S-(4alpha,12aalpha)]-4,7-Bis(dimethylamino-1,4,4a,5,5a,6,11,12a-octahydro-3,10, 12,12a-tetrahydroxy-9-[[[(2-(methoxyethyl)amino]acetyl]amino]-1,11-dioxo-2-naphthacenecarboxamide dihydrochloride
MIC (E. coli J3272 Tet D): 1 µg/mL
MIC [1]: > 32 µg/mL
MIC [2]: 2 µg/mL
MIC (S. mariescens FPOR 8733): > 32 µg/mL
MIC (E. coli J3272 Tet sens.): 2 µg/mL
MIC (S. aureus IVES 1 983): 32 µg/mL
MIC [3]: 2 µg/mL
MIC (E. coli UBMS 90-4 Tet M): 2 µg/mL
MIC (Enterococcus 12201): 0.5 µg/mL
MIC (S. aureus UBMS 88-4): 0.5 µg/mL
MIC [4]: 1 µg/mL
MIC [5]: 0.5 µg/mL
MIC (S. aureus NEMC 8769): 0.5 µg/mL
MIC [6]: 2 µg/mL
MIC (S. aureus ATCC 29213): 1 µg/mL
MIC [7]: 16 µg/mL
MIC (E. coli ATCC 25922): 2 µg/mL
MIC (E. coli UBMS 88-1 Tet B): 2 µg/mL
MIC (E. coli PRP1 Tet A): 8 µg/mL
MIC (E. coli UBMS 90-5): 2 µg/mL
MIC (E. coli UBMS 89-1 Tet M): 2 µg/mL
% Inhibition Wild Type S30 ([8]; Conc. 0.06 mg/ml): 92%
% Inhibition Wild Type S30 ([8]; Conc. 1.0 mg/ml): 98%
inhibition of protein synthesis occuring on wild type ribosomes [8]: effectively inhibit protein synthesis
reversibility of binding to the ribosome (the ribosome): bind reversibly
MIC [9]: 2 µg/mL
MIC (S. aureus IVES 2943): 32 µg/mL
MIC (E. coli #311 (MP)): 2 µg/mL
MIC (E. coli J2175): 2 µg/mL
MIC (E. coli J3272 Tet C): 4 µg/mL
MIC (S. aureus ROSE (MP)): 32 µg/mL
MIC (S. aureus SMITH (MP)): 0.5 µg/mL
MIC (S. aureus UBMS 90-3): 0.5 µg/mL

[4S-(4alpha,12aalpha)]-4,7-Bis(dimethylamino)-1,4,4a,5,5a,6,11,12a-octahydro-3,10, 12,12a-tetrahydroxy-9-[[[(3-methoxypropyl)amino]acetyl]amino]-1,11-dioxo-2-naphthacenecarboxamide dihydrochloride
MIC (E. coli J3272 Tet D): 0.5 µg/mL
MIC [1]: 32 µg/mL
MIC [2]: 2 µg/mL
MIC (S. mariescens FPOR 8733): 16 µg/mL
MIC (E. coli J3272 Tet sens.): 1 µg/mL
MIC (S. aureus IVES 1 983): 16 µg/mL
MIC [3]: 2 µg/mL
MIC (E. coli UBMS 90-4 Tet M): 1 µg/mL
MIC (Enterococcus 12201): 0.5 µg/mL
MIC (S. aureus UBMS 88-4): 1 µg/mL
MIC [4]: 0.5 µg/mL
MIC [5]: 0.5 µg/mL
MIC (S. aureus NEMC 8769): 0.25 µg/mL
MIC [6]: 1 µg/mL
MIC (S. aureus ATCC 29213): 1 µg/mL
MIC [7]: 8 µg/mL
MIC (E. coli ATCC 25922): 1 µg/mL
MIC (E. coli PRP1 Tet A): 4 µg/mL
MIC (E. coli UBMS 90-5): 1 µg/mL
MIC (E. coli UBMS 89-1 Tet M): 2 µg/mL
% Inhibition Wild Type S30 ([8]; Conc. 0.06 mg/ml): 88%
inhibition of protein synthesis occuring on wild type ribosomes [8]: effectively inhibit protein synthesis
reversibility of binding to the ribosome (the ribosome): bind reversibly
MIC [9]: 2 µg/mL
MIC (S. aureus IVES 2943): 16 µg/mL
MIC (E. faecalis ATCC 29212): 0.25 µg/mL
MIC (E. coli #311 (MP)): 1 µg/mL
MIC (E. coli J2175): 1 µg/mL
MIC (E. coli J3272 Tet C): 1 µg/mL
MIC (S. aureus ROSE (MP)): 16 µg/mL
MIC (E. coli BAJ9003 IMP MUT): 0.12 µg/mL
MIC (S. aureus SMITH (MP)): 0.5 µg/mL
MIC (S. aureus UBMS 90-3): 0.5 µg/mL
